In patent publication US10722442B2, “Skin brightening composition comprising novel ginsenoside” (AMOREPACIFIC CORPORATION, priority 2018, dated 2020):

What was measured:
SH-SY5Y cells = test: Cytotoxicity, Cell Counting Kit (CCK)-8; assay type: cell-based; details: SH-SY5Y cells, 0.1, 1, 5, 10, 20, and 50 μM; up to 50 μM
Protocol: The cell growth in the presence of novel ginsenoside GS #10, which is an example of the present disclosure, was evaluated using Cell Counting Kit (CCK)-8, in order to exclude the possibility that ginsenosides may affect skin brightening efficacy through cytotoxic activity.
Specifically, the viability of SH-SY5Y cells was assessed using CCK-8 assay according to manufacturer's instructions (Dojindo, Md., USA). CCK-8, a cell viability detection reagent, was added to the cultured SH-SY5Y cells and incubated for 2 hours in a wet atmosphere. Then, absorbance was measured at 450 nm, and the cell viability was marked as a percentage (%) of the absolute optical density of each sample relative to the untreated sample. At this time, the concentration of the novel ginsenoside GS #10, which is an example of the present disclosure, contained in the medium in which the cells were cultured was 0.1, 1, 5, 10, 20, and 50 μM, respectively.

healthy adult subjects = test: Human repeated insult patch tests (HRIPT), skin accumulated irritation; assay type: in vivo; design: key to reactivity (skin response, ICDRG criteria): −: Negative (no response); ±: Suspicious or slight erythema, or the like; +: Weak reactions (without vesicles), erythema, papules; ++: Severe reactions (with vesicles), erythema, papules, vesicles; +++: Strong reaction, bulla reaction; details: for Average reactivity: safe when less than 3
Protocol: Human repeated insult patch tests (HRIPT) were performed to confirm whether the novel ginsenoside GS #10, which is an example of the present disclosure, has a skin accumulated irritation and to calculate a concentration range that can be used on the skin.
Specifically, 15 healthy adult subjects were randomly selected, and the test composition containing 0.5 wt %, 1 wt %, and 3 wt % of the compound (the skin composition comprising an emulsifier, a stabilizer, purified water, etc. in addition to the compound) was added dropwise by 20 μl per chamber (IQ chamber, Epitest Ltd, Finland). After 24 hours from patching the upper right part of the back of a subject, it was replaced with the new patch. In this way, the skin reactions were examined before and after each patch while performing nine patches three times a week for a total of three weeks. The skin reactions were confirmed up to 48 hours after removing the final patch, and the average reactivity was obtained.
The skin response was determined according to the criteria of the International Contact Dermatitis Research Group (ICDRG). […] This means that the novel ginsenoside GS #10, which is an example of the present disclosure, has no skin accumulated irritation and can be used safely on the skin.

Mel-Ab cell line = test: Melanin production inhibition (Dooley's method); assay type: cell-based, C57BL/6; details: Mel-Ab cells, after 5 days, absorbance at 400 nm
[1] = target: Mushroom-derived tyrosinase; test: Inhibitory effect of tyrosinase activity; assay type: biochemical; details: L-tyrosine substrate, 20 minutes at 37° C., absorbance at 490 nm
Protocol: In order to compare the skin brightening effects of ginsenosides isolated from the ginseng seed extract, the inhibitory effect of the tyrosinase activity was evaluated as follows. Mushroom-derived tyrosinase and tyrosine were obtained from Sigma Chemical. […] Tyrosinase activity was assessed by measuring the absorbance at 490 nm using a microplate reader (Bio-Rad 3550, Richmond, Calif., U.S.A.) after an enzyme reaction for 20 minutes at 37° C.

SMILES: CC1(C)C(=O)CC[C@@]2(C)C1[C@@H](O[C@H]1OC(CO)[C@H](O)C(O)C1O[C@H]1OC(CO)[C@H](O)C(O)C1O)C[C@]1(C)C2C[C@@H](O)C2C([C@]3(C)CC[C@H](C(C)(C)O)O3)CC[C@]21C (stereo partly drawn) [GS#10, (20S,24R)-6-O-β-D-glucopyranosyl(1→2)-β-D-glucopyranoside-dammar-3-one-20,24-epoxy-6a,12b,25-triol]
- cytotoxicity (cell viability) (SH-SY5Y cells): did not exhibit cytotoxicity
- Number of subjects with ±, +, or ++ reactivity (healthy adult subjects; 0.5 wt %, Eight times, 1st line (±)): 0 person
- Number of subjects with ±, +, or ++ reactivity (healthy adult subjects; 0.5 wt %, Eight times, 2nd line (+)): 0 person
- Number of subjects with ±, +, or ++ reactivity (healthy adult subjects; 0.5 wt %, Eight times, 3rd line (++)): 0 person
- Number of subjects with ±, +, or ++ reactivity (healthy adult subjects; 0.5 wt %, Five times, 1st line (±)): 0 person
- Number of subjects with ±, +, or ++ reactivity (healthy adult subjects; 0.5 wt %, Five times, 2nd line (+)): 0 person
- Number of subjects with ±, +, or ++ reactivity (healthy adult subjects; 0.5 wt %, Five times, 3rd line (++)): 0 person
- Number of subjects with ±, +, or ++ reactivity (healthy adult subjects; 0.5 wt %, Four times, 1st line (±)): 0 person
- Number of subjects with ±, +, or ++ reactivity (healthy adult subjects; 0.5 wt %, Four times, 2nd line (+)): 0 person
- Number of subjects with ±, +, or ++ reactivity (healthy adult subjects; 0.5 wt %, Four times, 3rd line (++)): 0 person
- Number of subjects with ±, +, or ++ reactivity (healthy adult subjects; 0.5 wt %, Nine times, 1st line (±)): 0 person
- Number of subjects with ±, +, or ++ reactivity (healthy adult subjects; 0.5 wt %, Nine times, 2nd line (+)): 0 person
- Number of subjects with ±, +, or ++ reactivity (healthy adult subjects; 0.5 wt %, Nine times, 3rd line (++)): 0 person
- Number of subjects with ±, +, or ++ reactivity (healthy adult subjects; 0.5 wt %, Once, 1st line (±)): 0 person
- Number of subjects with ±, +, or ++ reactivity (healthy adult subjects; 0.5 wt %, Once, 2nd line (+)): 0 person
- Number of subjects with ±, +, or ++ reactivity (healthy adult subjects; 0.5 wt %, Once, 3rd line (++)): 0 person
- Number of subjects with ±, +, or ++ reactivity (healthy adult subjects; 0.5 wt %, Seven times, 1st line (±)): 0 person
- Number of subjects with ±, +, or ++ reactivity (healthy adult subjects; 0.5 wt %, Seven times, 2nd line (+)): 0 person
- Number of subjects with ±, +, or ++ reactivity (healthy adult subjects; 0.5 wt %, Seven times, 3rd line (++)): 0 person
- Number of subjects with ±, +, or ++ reactivity (healthy adult subjects; 0.5 wt %, Six times, 1st line (±)): 0 person
- Number of subjects with ±, +, or ++ reactivity (healthy adult subjects; 0.5 wt %, Six times, 2nd line (+)): 0 person
- Number of subjects with ±, +, or ++ reactivity (healthy adult subjects; 0.5 wt %, Six times, 3rd line (++)): 0 person
- Number of subjects with ±, +, or ++ reactivity (healthy adult subjects; 0.5 wt %, Three times, 1st line (±)): 0 person
- Number of subjects with ±, +, or ++ reactivity (healthy adult subjects; 0.5 wt %, Three times, 2nd line (+)): 0 person
- Number of subjects with ±, +, or ++ reactivity (healthy adult subjects; 0.5 wt %, Three times, 3rd line (++)): 0 person
- Average reactivity (healthy adult subjects; 0.5 wt %): 0
- Number of subjects with ±, +, or ++ reactivity (healthy adult subjects; 0.5 wt %, twice, 1st line (±)): 0 person
- Number of subjects with ±, +, or ++ reactivity (healthy adult subjects; 0.5 wt %, twice, 2nd line (+)): 0 person
- Number of subjects with ±, +, or ++ reactivity (healthy adult subjects; 0.5 wt %, twice, 3rd line (++)): 0 person
- Number of subjects with ±, +, or ++ reactivity (healthy adult subjects; 1 wt %, Eight times, 1st line (±)): 0 person
- Number of subjects with ±, +, or ++ reactivity (healthy adult subjects; 1 wt %, Eight times, 2nd line (+)): 0 person
- Number of subjects with ±, +, or ++ reactivity (healthy adult subjects; 1 wt %, Eight times, 3rd line (++)): 0 person
- Number of subjects with ±, +, or ++ reactivity (healthy adult subjects; 1 wt %, Five times, 1st line (±)): 0 person
- Number of subjects with ±, +, or ++ reactivity (healthy adult subjects; 1 wt %, Five times, 2nd line (+)): 0 person
- Number of subjects with ±, +, or ++ reactivity (healthy adult subjects; 1 wt %, Five times, 3rd line (++)): 0 person
- Number of subjects with ±, +, or ++ reactivity (healthy adult subjects; 1 wt %, Four times, 1st line (±)): 0 person
- Number of subjects with ±, +, or ++ reactivity (healthy adult subjects; 1 wt %, Four times, 2nd line (+)): 0 person
- Number of subjects with ±, +, or ++ reactivity (healthy adult subjects; 1 wt %, Four times, 3rd line (++)): 0 person
- Number of subjects with ±, +, or ++ reactivity (healthy adult subjects; 1 wt %, Nine times, 1st line (±)): 0 person
- Number of subjects with ±, +, or ++ reactivity (healthy adult subjects; 1 wt %, Nine times, 2nd line (+)): 0 person
- Number of subjects with ±, +, or ++ reactivity (healthy adult subjects; 1 wt %, Nine times, 3rd line (++)): 0 person
- Number of subjects with ±, +, or ++ reactivity (healthy adult subjects; 1 wt %, Once, 1st line (±)): 0 person
- Number of subjects with ±, +, or ++ reactivity (healthy adult subjects; 1 wt %, Once, 2nd line (+)): 0 person
- Number of subjects with ±, +, or ++ reactivity (healthy adult subjects; 1 wt %, Once, 3rd line (++)): 0 person
- Number of subjects with ±, +, or ++ reactivity (healthy adult subjects; 1 wt %, Seven times, 1st line (±)): 0 person
- Number of subjects with ±, +, or ++ reactivity (healthy adult subjects; 1 wt %, Seven times, 2nd line (+)): 0 person
- Number of subjects with ±, +, or ++ reactivity (healthy adult subjects; 1 wt %, Seven times, 3rd line (++)): 0 person
- Number of subjects with ±, +, or ++ reactivity (healthy adult subjects; 1 wt %, Six times, 1st line (±)): 0 person
- Number of subjects with ±, +, or ++ reactivity (healthy adult subjects; 1 wt %, Six times, 2nd line (+)): 0 person
- Number of subjects with ±, +, or ++ reactivity (healthy adult subjects; 1 wt %, Six times, 3rd line (++)): 0 person
- Number of subjects with ±, +, or ++ reactivity (healthy adult subjects; 1 wt %, Three times, 1st line (±)): 0 person
- Number of subjects with ±, +, or ++ reactivity (healthy adult subjects; 1 wt %, Three times, 2nd line (+)): 0 person
- Number of subjects with ±, +, or ++ reactivity (healthy adult subjects; 1 wt %, Three times, 3rd line (++)): 0 person
- Average reactivity (healthy adult subjects; 1 wt %): 0
- Number of subjects with ±, +, or ++ reactivity (healthy adult subjects; 1 wt %, twice, 1st line (±)): 0 person
- Number of subjects with ±, +, or ++ reactivity (healthy adult subjects; 1 wt %, twice, 2nd line (+)): 0 person
- Number of subjects with ±, +, or ++ reactivity (healthy adult subjects; 1 wt %, twice, 3rd line (++)): 0 person
- Number of subjects with ±, +, or ++ reactivity (healthy adult subjects; 3 wt %, Eight times, 1st line (±)): 0 person
- Number of subjects with ±, +, or ++ reactivity (healthy adult subjects; 3 wt %, Eight times, 2nd line (+)): 0 person
- Number of subjects with ±, +, or ++ reactivity (healthy adult subjects; 3 wt %, Eight times, 3rd line (++)): 0 person
- Number of subjects with ±, +, or ++ reactivity (healthy adult subjects; 3 wt %, Five times, 1st line (±)): 0 person
- Number of subjects with ±, +, or ++ reactivity (healthy adult subjects; 3 wt %, Five times, 2nd line (+)): 0 person
- Number of subjects with ±, +, or ++ reactivity (healthy adult subjects; 3 wt %, Five times, 3rd line (++)): 0 person
- Number of subjects with ±, +, or ++ reactivity (healthy adult subjects; 3 wt %, Four times, 1st line (±)): 0 person
- Number of subjects with ±, +, or ++ reactivity (healthy adult subjects; 3 wt %, Four times, 2nd line (+)): 0 person
- Number of subjects with ±, +, or ++ reactivity (healthy adult subjects; 3 wt %, Four times, 3rd line (++)): 0 person
- Number of subjects with ±, +, or ++ reactivity (healthy adult subjects; 3 wt %, Nine times, 1st line (±)): 0 person
- Number of subjects with ±, +, or ++ reactivity (healthy adult subjects; 3 wt %, Nine times, 2nd line (+)): 0 person
- Number of subjects with ±, +, or ++ reactivity (healthy adult subjects; 3 wt %, Nine times, 3rd line (++)): 0 person
- Number of subjects with ±, +, or ++ reactivity (healthy adult subjects; 3 wt %, Once, 1st line (±)): 0 person
- Number of subjects with ±, +, or ++ reactivity (healthy adult subjects; 3 wt %, Once, 2nd line (+)): 0 person
- Number of subjects with ±, +, or ++ reactivity (healthy adult subjects; 3 wt %, Once, 3rd line (++)): 0 person
- Number of subjects with ±, +, or ++ reactivity (healthy adult subjects; 3 wt %, Seven times, 1st line (±)): 0 person
- Number of subjects with ±, +, or ++ reactivity (healthy adult subjects; 3 wt %, Seven times, 2nd line (+)): 0 person
- Number of subjects with ±, +, or ++ reactivity (healthy adult subjects; 3 wt %, Seven times, 3rd line (++)): 0 person
- Number of subjects with ±, +, or ++ reactivity (healthy adult subjects; 3 wt %, Six times, 1st line (±)): 0 person
- Number of subjects with ±, +, or ++ reactivity (healthy adult subjects; 3 wt %, Six times, 2nd line (+)): 0 person
- Number of subjects with ±, +, or ++ reactivity (healthy adult subjects; 3 wt %, Six times, 3rd line (++)): 0 person
- Number of subjects with ±, +, or ++ reactivity (healthy adult subjects; 3 wt %, Three times, 1st line (±)): 0 person
- Number of subjects with ±, +, or ++ reactivity (healthy adult subjects; 3 wt %, Three times, 2nd line (+)): 0 person
- Number of subjects with ±, +, or ++ reactivity (healthy adult subjects; 3 wt %, Three times, 3rd line (++)): 0 person
- Average reactivity (healthy adult subjects; 3 wt %): 0
- Number of subjects with ±, +, or ++ reactivity (healthy adult subjects; 3 wt %, twice, 1st line (±)): 0 person
- Number of subjects with ±, +, or ++ reactivity (healthy adult subjects; 3 wt %, twice, 2nd line (+)): 0 person
- Number of subjects with ±, +, or ++ reactivity (healthy adult subjects; 3 wt %, twice, 3rd line (++)): 0 person
- reactivity (skin response, ICDRG criteria) (healthy adult subjects; all content range (0.5 wt %, 1 wt %, 3 wt %), nine patches in three weeks): −
- IC50 (ppm), concentration required to reduce melanin production in melanocytes by half (Mel-Ab cell line): 22 ppm
- IC50 (ppm), inhibitory effect of tyrosinase activity [1]: 15 ppm
